Data from article PMC5427942, “Methionine aminopeptidase 2 is a key regulator of apoptotic like cell death in Leishmania donovani” (Scientific Reports, 2017).

B1: methionine aminopeptidase 2 (LdMAP2) (Leishmania donovani) (protein)
chain: MPPKMSAKNKQQPKQQGGNKKGKGSSQDGDDFDAMLAAAVNASKADAAKNHSNNHQGKRSSNGNGTAPASRSLAADEPVVPSSADHPENPYPKTADGYPRQTWPEPTVLVSKQFAPGQFPAGEIVDHPGEMNNFRRSSEEKRALARASEQQVQEMREAAEVHRQVRTWAQSWIKPGLSLMLMTDRIEKKLNELIGKDGILRGQAFPTGCSLNHVAAHYTPNTGDEKVVLAYDDVMKVDFGTHINGRIIDCAWTVAFNPMFDPLLQAVKEATYEGIKQAGIDVRLGDIGAAIEEVMESHEVEINGKVHQVKSIRNLSGHNIAPYIIHSGKSVPIVKGGEQTKMEEGEVFAIETFGSTGRGFVNEDLECSHYMMRPGAEVMQLRSEKAQQLLKHIHKSYSTLAFCRKWLDRDGFDRHLMNLNRLVDEGAVNKYPPLVDVKGSYTAQYEHTIYLGPTAKEILSKGSDY

Legend:
[1] = molecular target: T1, methionine aminopeptidase 2 (LdMAP2) (Leishmania donovani, UniProt A0A3S7WWI2); experiment: fluorogenic Met-AMC hydrolysis assay, Lineweaver-Burk plot, single inhibitor concentration ([…]); assay type: biochemical
T1 construct: gene LdCL_210014600

purified protein = substrate: CSCC[C@H](N)C(=O)Nc1ccc2c(C)cc(=O)oc2c1; experiment: purified protein; details: divalent metal ion ([…] NiSO4 in assay)

Molecule | Ki [1] | Km (purified protein)
CO[C@@H]1[C@H](OC(=O)NC(=O)CCl)CC[C@]2(CO2)[C@H]1[C@@]1(C)O[C@@H]1CC=C(C)C [TNP-470, 5-methoxy-4-(2-methyl-3-(3-methyl-2-butenyl)oxiranyl)-1-oxaspiro(2,5)oct-6-yl (chloroacetyl) carbamate] | 13.5 nM | –
B1 | – | 200 µM
